Converted amounts (≈) assume the structure as drawn. “And” between values parts separate entries of the source, which are not always exact repeats. Equal values may be shown once. Read-outs that look alike come from different tables or passages of the source.
Key:
[1] = tested on: HEK293 cells; assay: Cell-viability assay (CellTiterGlo); type: cell-based; settings: Homo sapiens, 24 h, 37 °C, 3.125–100 μM, n = 2
Protocol: Compounds were prepared in serial dilutions (3.125–100 μM in 1% DMSO) and transferred to 384-well plates together with a positive (Staurosporine) and a negative (no compound) control. In total, 25 μl of HEK293 cells (ATCC; verified by short tandem repeat PCR and mycoplasma negative) (50,000 cells per ml) were added in either low-serum-containing (0.5% fetal bovine serum (FBS)) or high-serum-containing (12.5% FBS, 1% BSA) medium (Dulbecco’s modified Eagle medium (DMEM), glucose, L-glutamine). The plates were incubated for 24 h at 37 °C and a mixture of CellTiterGlo and DMEM was added to the plates. After incubation at room temperature, the luminescence signal was read using a BioTeK reader and a calculated IC50 was derived from the data.

[2] = biological target: CYP3A4 (Homo sapiens, UniProt P08684); assay: CYP inhibition; type: in vitro ADME
Sequence of CYP3A4 (P08684 whole entry): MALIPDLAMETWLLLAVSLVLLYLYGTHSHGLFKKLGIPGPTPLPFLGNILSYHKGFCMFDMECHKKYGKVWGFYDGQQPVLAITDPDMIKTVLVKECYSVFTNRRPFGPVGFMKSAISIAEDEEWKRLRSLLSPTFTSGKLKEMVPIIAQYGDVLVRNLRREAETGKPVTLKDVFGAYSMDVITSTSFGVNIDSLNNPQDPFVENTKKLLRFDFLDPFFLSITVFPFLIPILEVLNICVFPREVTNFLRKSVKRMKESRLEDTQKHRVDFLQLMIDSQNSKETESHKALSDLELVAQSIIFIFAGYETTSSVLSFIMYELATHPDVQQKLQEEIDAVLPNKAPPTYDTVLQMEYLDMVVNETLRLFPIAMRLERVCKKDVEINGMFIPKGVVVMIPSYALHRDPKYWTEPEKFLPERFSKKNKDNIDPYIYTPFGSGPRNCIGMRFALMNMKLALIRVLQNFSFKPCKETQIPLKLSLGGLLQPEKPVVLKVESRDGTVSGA

[3] = tested on: GABA-A (benzodiazapine binding site); assay: Off-target screening (CEREP); design: species or system rat; settings: 10 µM, duplicates
Protocol: (§1) Supplementary Table 1 │ Off-target activity screening f or MCP compou nds […]
(§2) The assays given in the table above were conducted at Eurofins CEREP S A (Celle-Lévescault, France) and were run as single point measurements in duplicates in the presence of 10 µ M of the test compound and reported as percent inhibition of the radioligand signal or control enzymatic activity. n.d., not

[4] = tested on: PCP receptor; assay: Off-target screening (CEREP); type: binding, rat; settings: 10 µM, duplicates
Protocol: as §1, §2

[5] = tested on: Ca2+ channel (diltiazem site); assay: Off-target screening (CEREP); type: binding, rat; settings: 10 µM, duplicates
Protocol: as §1, §2

[6] = tested on: GABA Cl- channel receptor; assay: Off-target screening (CEREP); type: binding, rat; settings: 10 µM, duplicates
Protocol: as §1, §2

[7] = tested on: A. baumannii; assay: Immunocompetent mouse septicaemia infection model; type: in vivo; settings: for Survivors, individual mouse status: ACC00445 septicaemia, 80 mg/kg
Protocol: Septicaemia was induced in CD-1 immunocompetent male mice by an intraperitoneal inoculation of a bacterial suspension of the tested A. baumannii isolate at a challenge of approximately 1–2 log[CFU] above the determined median lethal dose (resulting in 10^5 to 10^7 CFU per mouse). […] Mouse survival was followed over 6–7 days. GraphPad Prism 8 was used for graphical presentation of the data. Septicaemia studies with mutant derivative isolates obtained in resistance studies were performed as described above, using a bacterial challenge as determined for the parental isolate.

[8] = Mouse pharmacokinetics study, i.v. bolus; type: in vivo; settings: male CD1 mice, 1 mg/kg IV; for Vss / t1/2, terminal plasma half-life: n = 3; for Cl: n = 3, LC-MS, non-compartmental
Protocol: Three male CD1 mice were administered with compound formulation (0.5 mg ml^−1 in 0.9% aqueous sodium chloride solution) as an intravenous bolus dose of 1 mg per kg. Blood was sampled at 0.08, 0.25, 0.5, 1, 2, 4, 7 and 24 h after administration and the blood collecting tubes were centrifuged for 5 min at 5,200g at room temperature to isolate the plasma supernatant. The concentrations of compound in the plasma were analysed using a liquid chromatography–mass spectrometry method with a calibration range of 5–10,000 ng ml^−1. The pharmacokinetic parameters were derived from the individual concentration data and were estimated by non-compartmental analysis.

[9] = Fraction unbound in mouse plasma; type: in vitro ADME
[10] = tested on: C. albicans ATCC 90028; settings: 100%
[11] = Rat plasma precipitation assay; settings: for Threshold concentration for precipitation: Wistar rat heparin plasma 1:1 with compound in saline/PBS, absorbance difference OD362 ≥ 0.05, n = 1
Protocol: Whole blood was obtained from WISTAR rats and collected in 1.2 ml heparin tubes for the preparation of heparin plasma. The tubes were then centrifuged for 5 min at 5,200g at room temperature to isolate the plasma supernatant. Test compounds were received as powder and solubilized at various concentrations in 0.9% aqueous sodium chloride solution and adjusted for pH with phosphate-buffered saline (PBS). The assay was conducted in 384-well plates. Rat plasma (10 µl) was added to 10 µl of the various compound solutions. A total of 10 µl of vehicle (0.9% aqueous sodium chloride solution, PBS) added to the plasma was used as a negative control. The absorption was measured at 362 nm. Raw data were obtained as absorbance data. The difference between the absorbance of the sample and the mean absorbance of the vehicle was calculated. The minimum effect concentration was defined as the lowest concentration giving an absorbance difference of OD362 ≥ 0.05.

[12] = tested on: A. baumannii; assay: Neutropaenic mouse thigh infection model; type: in vivo
Protocol: An intramuscular inoculation of a bacterial suspension of approximately 10^6 CFU per thigh was used to induce the infection. Treatment started 2 h after infection. […] In the pneumonia model, an intratracheal inoculation of approximately 10^7 CFU per lung was used to induce the infection. Treatment started 2 h after infection. […] Standard of care antibiotic was tested at a single dose in both infection models. GraphPad Prism 8 was used for graphical presentation and to analyse data.

[13] = murine septicaemia, MDR A. baumannii APV00535 (ACC00535), MCP 0.1 mg/kg, mark per mouse (10 mice), study VDD3948

Compound | IC50 [1] | CYP inh. (3A4) [2] | percent inhibition [3] | percent inhibition [4] | percent inhibition [5] | percent inhibition [6] | Vss [8] | t1/2, terminal plasma half-life [8] | Cl [8] | fu (m), fraction unbound in mouse plasma [9] | MIC 100% ([10]; Study LGC281440) | MIC 100% ([10]; Study LGC282160) | MIC 100% ([10]; Study LGC284879) | MIC 100% ([10]; Study LGC285582) | MIC 100% ([10]; Study LGC286210) | MIC 100% ([10]; Study LGC293598) | MIC 100% ([10]; Study LGC294355) | MIC 100% ([10]; Study LGC295147) | MIC 100% ([10]; Study LGC296813) | MIC 100% ([10]; Study LGC299544) | other results
CN1C(=O)[C@H](CCCN)NC(=O)[C@H](CCCN)NCc2ccccc2Sc2ccccc2CNC(=O)[C@@H]1Cc1c[nH]c2ccccc12 [RO7036668] | > 100 µM | 18 µM | – | – | – | – | – | – | – | – | – | – | – | – | – | – | – | – | – | – | –
CN1C(=O)[C@H](CCCCN)NC(=O)[C@H](CCCN)NCc2cccnc2Sc2c(Cl)ccc(Cl)c2CNC(=O)[C@@H]1Cc1c[nH]c2ccccc12 [RO7075573] | > 100 µM | 16 µM | -20% | -10% | -1% | -9% | 0.3 L/kg | 2 h | 5.7 mL/min/kg | 17% | 64 µg/mL (≈ 86.5 µM) | >64 µg/mL | >64 µg/mL | >64 µg/mL | >64 µg/mL | >64 µg/mL | >64 µg/mL | >64 µg/mL | >64 µg/mL | >64 µg/mL | Protection in lethal sepsis model ([7]; ACC00535, immunocompetent mice, s.c. doses between 0.1 and 0.3 mg per kg at 1 h and 5 h): complete protection; Survivors, 2016-02-03 ([7]; murine septicaemia, MDR A. baumannii APV00535 (ACC00535), MCP 0.01 mg/kg, mark per mouse (10 mice), study VDD3948): 1; Survivors, 2016-02-03 ([7]; murine septicaemia, MDR A. baumannii APV00535 (ACC00535), MCP 0.03 mg/kg, mark per mouse (10 mice), study VDD3948): 1; Survivors, 2016-02-03 [7, 13]: 1; Survivors, 2016-02-04 [7, 13]: 1; MIC 100% ([10]; Study LGC301026): >64 µg/mL; MIC 100% ([10]; Study LGC308175): >64 µg/mL; MIC 100% ([10]; Study ROC010): >64 µg/mL; MIC 100% ([10]; Study ROC012): >64 µg/mL; Threshold concentration for precipitation [11]: 0.038 mg/mL and 0.0385 mg/mL; Threshold concentration causing precipitation ([11]; rat plasma): 52 µM; Decrease in thigh bacterial burden ([12]; ACC00535, neutropaenic mice, s.c. every 4 h for 24 h): > 4 log CFU
CN1C(=O)[C@H](CCCCN)NC(=O)[C@H](CCCN)NCc2cccnc2Sc2c(Cl)ccc(-c3ccc(C(=O)O)cc3)c2CNC(=O)[C@@H]1Cc1c[nH]c2ccccc12 [RO7202110] | > 100 µM | >50 (3A4) >50 (2C9) >50 (2D6) μM | 14% | 9% | 2% | -1% | 0.9 L/kg | 0.2 h | 84 mL/min/kg | 10% | – | – | – | – | – | – | – | – | – | – | Threshold concentration for precipitation [11]: 0.39 mg/mL
C[C@@H](O)[C@H]1C(=O)N2C(C(=O)O)=C(S[C@@H]3CN[C@H](C(=O)N(C)C)C3)[C@H](C)[C@H]12 [meropenem, reference compound] | – | – | – | – | – | – | – | – | – | – | >64 µg/mL | >64 µg/mL | >64 µg/mL | >64 µg/mL | >64 µg/mL | >64 µg/mL | >64 µg/mL | >64 µg/mL | >64 µg/mL | >64 µg/mL | Survivors, individual mouse status ([7]; Day 1): 1; Survivors, individual mouse status ([7]; Day 2): 1; Survivors, 2016-02-03 ([7]; murine septicaemia, MDR A. baumannii APV00535 (ACC00535), Meropenem 80 mg/kg, mark per mouse (10 mice), study VDD3948): 1; MIC 100% ([10]; Study LGC277937): >64 µg/mL; MIC 100% ([10]; Study LGC279800): >64 µg/mL; MIC 100% ([10]; Study LGC282623): >64 µg/mL; MIC 100% ([10]; Study LGC283932): >64 µg/mL; MIC 100% ([10]; Study LGC284200): >64 µg/mL; MIC 100% ([10]; Study LGC301026): >64 µg/mL; MIC 100% ([10]; Study LGC308175): >64 µg/mL; MIC 100% ([10]; Study ROC003): >64 µg/mL; MIC 100% ([10]; Study ROC004): >64 µg/mL; MIC 100% ([10]; Study ROC005): >64 µg/mL; MIC 100% ([10]; Study ROC006): >64 µg/mL; MIC 100% ([10]; Study ROC008): >64 µg/mL; MIC 100% ([10]; Study ROC009): >64 µg/mL; MIC 100% ([10]; Study ROC010): >64 µg/mL; MIC 100% ([10]; Study ROC013): >64 µg/mL; delta 24 hr ([12]; A. baumannii ACC00535 (APV00535), neutropenic mice, MERO 100 mg/kg, 24 h, change of average log CFU/thigh vs vehicle at 24 h): 0.67; Thigh bacterial burden outcome ([12]; ACC00535, neutropaenic mice): bacterial outgrowth
